According to BindingDB's records for doi:10.1016/0960-894X(95)00325-N (1995):

assay: Binding affinity by its ability to displace [3H]DPDPE from delta receptor in homogenates of guinea pig brain

Going from `COc1cccc2c1[C@]13CCN(CC4CC4)[C@H](C2)[C@]1(OC)CCC(=O)C3` [Naltrindole analogue] to `COc1cccc2c1[C@]13CCN(C)[C@H](C2)[C@]1(OC)CCC(=O)C3` [3,10-dimethoxy-17-methyl-(10S)-17-azatetracyclo[7.5.3.01,10.02,7]heptadeca-2(7),3,5-trien-13-one], the Ki falls from 105 nM to 46 nM (2.3-fold). The second binds more tightly here.

In the case of `COc1cccc2c1[C@]13CCN(CCc4ccccc4)C(C2)[C@]1(OC)CCC(=O)C3` [3,10-dimethoxy-17-phenethyl-17-azatetracyclo[7.5.3.01,10.02,7]heptadeca-2(7),3,5-trien-13-one; with HBr], the Ki is reported as 49 nM.
